Data set [1] has as its system resistance arteries. Kind of data set: Wire myography: relaxation to dilator agonists after preconstriction with U46619 (Example 2). To be noted: median; for IC50 / Emax: Homo sapiens; for Emax: read-out: Emax (maximum relaxation after preconstriction with U46619). It counts as cell-based, human.
Data set [2] deals with small peripheral resistance vessels. The data set can be described thus: Wire myography by rs9349379 genotype: vasodilator response to ACh. To be noted: Homo sapiens, 95% CI; for EC50: read-out: ACh pEC50 (converted). It is filed as cell-based.
Data set [3] relates to resistance arteries. Kind of data set: Wire myography: contractile response to constrictor agonists, relative to KPSS (Example 2). It is filed as cell-based, human. To be noted: for Emax (percentage of maximum response to KPSS solution) / pEC50: median.
Data set [4] has as its system small peripheral resistance vessels. The data set can be described thus: Wire myography by rs9349379 genotype: vasoconstriction to ET-1. It is filed as cell-based, human. To be noted: 95% CI. The procedure: (§1) Ex vivo pharmacological assessment of peripheral vascular function was performed on patients who volunteered to undergo a gluteal skin fat biopsy within 4 weeks of the invasive coronary function assessment. The biopsy was obtained under sterile conditions using local anaesthesia with lidocaine (2%). Small peripheral resistance vessels (<400 μm) were carefully dissected from fresh biopsies using a light microscope. About 2 mm length vessels were mounted on 40-μm stainless steel wires for isometric myography in multi-channel myograph chambers (DMT, Denmark) filled with physiological saline solution. […] This vascular biology sub-study was an extension of our work in INOCA subjects that was previously published in this journal.^31A The detailed methods are described in the Supplementary material online, Appendix.
(§2) The peripheral vascular sensitivity to ET-1 (pEC50) and maximum vasoconstriction to ET-1 (Eumax) were determined. For the antagonist studies, the affinity (KB) of BQ123 was first determined in paired vessels from individuals and calculated using Schild regression. The pKB (−log10 KB) values were compared between each genotype as an indicator of whether or not patients of different genotypes are likely to respond equally well to an ETA antagonist used clinically.

In data set [5] the target is T1, ETA receptor (Homo sapiens, UniProt P25101).
T1 construct: Small peripheral resistance vessels (<400 μm) were carefully dissected from fresh biopsies using a light microscope; from tissue; host or cells: small peripheral resistance arteries from gluteal skin fat biopsies of angina patients
T1 sequence (P25101 21-427): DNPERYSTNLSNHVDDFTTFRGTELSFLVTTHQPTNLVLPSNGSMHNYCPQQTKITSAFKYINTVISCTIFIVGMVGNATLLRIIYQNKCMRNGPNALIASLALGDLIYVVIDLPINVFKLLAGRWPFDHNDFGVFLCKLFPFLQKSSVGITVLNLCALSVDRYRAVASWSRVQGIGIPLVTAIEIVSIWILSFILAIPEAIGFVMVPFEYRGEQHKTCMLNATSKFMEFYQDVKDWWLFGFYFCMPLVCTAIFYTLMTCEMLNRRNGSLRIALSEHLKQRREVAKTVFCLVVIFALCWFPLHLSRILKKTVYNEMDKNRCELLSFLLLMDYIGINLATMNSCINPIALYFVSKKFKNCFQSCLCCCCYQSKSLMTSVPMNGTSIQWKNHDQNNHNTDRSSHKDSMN
Kind of data set: ET-1 cumulative concentration response curves after antagonist preincubation, Schild plot pA2 (Example 3). To be noted: microvessels pre-treated with antagonist. It is filed as cell-based.

The target in data set [6] is T1, ETA receptor. Kind of data set: Paired ET-1 CCRCs with and without ETA antagonist, pKB by Schild regression (Examples 4 and 5). It counts as cell-based. To be noted: for Kb: pKB. The procedure:
as §1, §2

Data set [7] concerns coronary microvascular endothelial function. To be noted: 10 mg PO daily for 6 months; IC-ACh; cited from earlier work.
Data set [8] deals with small peripheral resistance arteries. The data set can be described thus: Reversal of an established ET-1-mediated vessel constriction, wire myography. It counts as cell-based, human. To be noted: clinically relevant concentrations.
Data set [9] concerns human mammary resistance arteries. To be noted: compared with bosentan; cited from earlier work.
For data set [10] the following is noted: cited from earlier work.
Data set [11] in a line: GTN half-life and remaining dose. To be noted: human, in vivo, other: intra-arterial; after 10 min; read-out: share of the dose bioavailable.
The conditions of data set [12]: subjects with low myocardial perfusion homogeneity; cited from earlier work.

Structures are written as SMILES. “Also recorded” adds a separate entry of the source. Like-named read-outs stand apart in the source and are kept apart here. Where a SMILES comes first, the peptide text is derived from it.

One may read the IC50 as the concentration that inhibits the measured activity by half. The Emax is the greatest response seen or fitted, relative to the assay's reference. Consider `CC(=O)OCC[N+](C)(C)C` [ACh, Acetylcholine], for which the IC50 in the data set with resistance arteries [1] (MVA patients) was 79.4 nM; in the data set with resistance arteries [1] (VSA patients), 79.4 nM; in the data set on resistance arteries [1] (control subjects), 50.1 nM. Moreover, the Emax in the data set with resistance arteries [1] (MVA patients) is 77.6%; with resistance arteries [1] (VSA patients), 79%; in the data set on resistance arteries [1] (control subjects), 98.7%; in data set [2] (genotype AA), 77.7%; in data set [2] (genotype AG), 80.2%; in data set [2] (genotype GG), 92.5%. In the data set on resistance arteries [1] (control subjects), the “Emax (maximum relaxation after preconstriction with U46619)” value was 98%. For the same compound, the figures for the EC50 in data set [2] (genotype AA), in data set [2] (genotype AG) and in data set [2] (genotype GG) were 52.5 nM, 55 nM and 110 nM, respectively.

In general, pEC50 refers to the EC50 on a negative log10 scale, so that one unit is a factor of ten. High values mean a low EC50, low ones a high EC50. With `CC[C@H](C)[C@H](NC(=O)[C@H](CC(=O)O)NC(=O)[C@H](CC(C)C)NC(=O)[C@H](Cc1c[nH]cn1)NC(=O)[C@@H]1CSSC[C@H](N)C(=O)N[C@@H](CO)C(=O)N[C@H]2CSSC[C@H](NC(=O)[C@H](CCC(=O)O)NC(=O)[C@H](CCCCN)NC(=O)[C@H](CC(=O)O)NC(=O)[C@H](CCSC)NC(=O)[C@H](CC(C)C)NC(=O)[C@H](CO)NC(=O)[C@H](CO)NC2=O)C(=O)N[C@@H](C(C)C)C(=O)N[C@@H](Cc2ccc(O)cc2)C(=O)N[C@@H](Cc2ccccc2)C(=O)N1)C(=O)N[C@H](C(=O)N[C@@H](Cc1c[nH]c2ccccc12)C(=O)O)[C@@H](C)CC` [ET-1], the “Emax (percentage of maximum response to KPSS solution)” value with resistance arteries [3] (MVA patients) was 121%; with resistance arteries [3] (VSA patients), 125%; in the data set on resistance arteries [3] (control subjects) it was 100%. The pEC50 in the data set with resistance arteries [3] (MVA patients) is given as 9.6; in the data set with resistance arteries [3] (VSA patients), 9.5; in the data set on resistance arteries [3] (control subjects) it was 9.3. Besides, in the data set with resistance arteries [3] (all groups), the “sensitivity of resistance arteries to constrictor effects of ET-1 compared with U46619” value is recorded as “around 50 fold”. For the same compound, the “ET-1 Emax (maximum vasoconstriction)” value in data set [4] (genotype AA) is given as 122.3%; in data set [4] (genotype AG) it was 115.5%; in data set [4] (genotype GG), 129.7%. Moreover, the “ET-1 pEC50” value in data set [4] (genotype AA) is on record as 9.34; in [4] (genotype AG) it was 9.45; in data set [4] (genotype GG), 9.32.

What is called Kb is the affinity of an antagonist, worked out from how it opposes an agonist. Read a low Kb as higher antagonist affinity. With `CC(C)C[C@@H]1NC(=O)[C@@H](C(C)C)NC(=O)[C@@H]2CCCN2C(=O)[C@@H](CC(=O)O)NC(=O)[C@@H](Cc2c[nH]c3ccccc23)NC1=O` [BQ123] (HELM PEPTIDE1{L.[dW].[dD].P.[dV]}$PEPTIDE1,PEPTIDE1,1:R1-5:R2$$$V2.0), the “effect on the ET-1 constrictor response (shift of ET-1 CCRC)” value on ETA receptor [5] was “also inhibits the ET-1 response; also recorded: an effect comparable to that of zibotentan”. Further, at ETA receptor [6] (all genotype groups), the “effect on the ET-1 CCRC and constrictor responses” value is recorded as “parallel rightward shift of the CCRC to ET-1 in all arteries; also recorded: fully blocked the constrictor responses in all of the groups”. The Kb on ETA receptor [6] (all genotypes pooled, mean (95% CI)) was 29.5 nM; at ETA receptor [6] (rs9349379 genotype AA, ±SEM) it was 85.1 nM; at ETA receptor [6] (rs9349379 genotype AG, ±SEM), 16.2 nM; on ETA receptor [6] (rs9349379 genotype GG, ±SEM), 38.9 nM.

In the case of `CCCCN(CCCC)C(=O)CN1C[C@H](c2ccc3c(c2)OCO3)[C@@H](C(=O)O)[C@@H]1c1ccc(OC)cc1` [atrasentan], in data set [7], the “coronary microvascular endothelial function” value was “improved coronary microvascular endothelial function”.

Turning to `CCCC[C@@H](NC(=O)[C@@H](Cc1cn(C(=O)OC)c2ccccc12)NC(=O)[C@H](CC(C)(C)C)NC(=O)N1[C@H](C)CCC[C@@H]1C)C(=O)O` [BQ788], on ETA receptor [5], the “effect on the ET-1 constrictor response (shift of ET-1 CCRC)” value is recorded as “only minimal shift in the ET-1 response; also recorded: negligible effect on the ET-1 constrictor response”.

As to `COc1nc(C)cnc1NS(=O)(=O)c1cccnc1-c1ccc(-c2nnco2)cc1` [zibotentan, N-(3-Methoxy-5-methylpyrazin-2-yl)-2-[4-(1,3,4-oxadiazol-2-yl)phenyl]pyridine-3-sulfonamide], the “reversal or inhibition of an established constrictor response to ET-1” value in [8] was “concentration-dependent inhibition of an established constrictor response to ET-1; also recorded: fully reversed an established endothelin-1 vasoconstriction”; in data set [8] (listed as Zibotentan), “concentration-dependent inhibition of an established constrictor response to ET-1; also recorded: reversed ET-1-induced vasoconstriction independently of G allele status; also recorded: reversed an established ET-1-mediated vasoconstriction; also recorded: rapidly and fully reversed the established endothelin-1 constrictor response”.

`CC(C)C[C@H](NC(=O)N1CCCCCC1)C(=O)N[C@H](Cc1cn(C)c2ccccc12)C(=O)N[C@H](Cc1ccccn1)C(=O)O` [FR139317]: the “blocking of ET-1 induced contractions” value in data set [9] is “less effective than the dual ETAR/ETBR antagonist bosentan”.

As to `Cc1cc2c(cc1CC(=O)c1sccc1S(=O)(=O)Nc1onc(C)c1Cl)OCO2` [sitaxentan], in [10] (HFpEF patients, compared to placebo), the exercise time result is “increase in exercise time compared to placebo”. For the same compound, the hepatotoxicity entry in [10] (in vivo) was “withdrawn from development owing to hepatotoxicity”.

For the compound `O=[N+]([O-])OCC(CO[N+](=O)[O-])O[N+](=O)[O-]` [GTN, glyceryl trinitrate], the bioavailability at 10 min in data set [11] was 3%.

`COc1cc(OC)nc(O[C@H](C(=O)O)C(OC)(c2ccccc2)c2ccccc2)n1` [darusentan]: the flow homogeneity result in data set [12] is “increases flow homogeneity”.

Turning to `CCCCC[C@H](O)/C=C/[C@@H]1[C@@H](C/C=C\CCCC(=O)O)[C@H]2CO[C@@H]1C2` [U46619], the “Emax (percentage of maximum response to KPSS solution)” value with resistance arteries [3] (MVA patients) worked out at 143%; with resistance arteries [3] (VSA patients) it was 141%; in the data set on resistance arteries [3] (control subjects), 109%. Moreover, the results for the negative-log EC50 (pEC50) with resistance arteries [3] (MVA patients), in the data set on resistance arteries [3] (VSA patients) and in the data set with resistance arteries [3] (control subjects) were 8.0, 7.5 and 7.50, respectively.

(Values after patent US12233061B2, “Microvascular angina” (THE UNIVERSITY COURT OF THE UNIVERSITY OF GLASGOW, priority 2019, dated 2025).)
